# The source made the active and inactive calls. No cut-off for these calls is given here.
# What was measured:
# [1] = Induction of osteogeneis in rat calvarial osteoblast cells assessed as fold upregulation of ALP gene expression at 100 pM measured after 48 hrs by qPCR analysis relative to control; format: functional
# [2] = Induction of osteogeneis in rat calvarial osteoblast cells assessed as fold upregulation of RUNX2 gene expression at 10 nM measured after 48 hrs by qPCR analysis relative to control; format: functional
# [3] = tested on: Calvarial osteoblast; experiment: Induction of mineralization in rat Calvarial osteoblast cells measured at 10 nM measured for 14 days by Cetylpyridinium chloride method; format: functional, tissue-based; details: time 14.0 day
# [4] = Induction of osteogeneis in rat calvarial osteoblast cells assessed as fold upregulation of Col1 gene expression at 10 nM measured after 48 hrs by qPCR analysis relative to control; format: functional
# [5] = tested on: Calvarial osteoblast; experiment: Induction of osteogenesis in rat calvarial osteoblast cells assessed as fold upregulation of BMP-2 gene expression at 10 nM measured after 48 hrs by qPCR analysis relative to control; format: functional
# [6] = tested on: Calvarial osteoblast; experiment: Induction of rat Calvarial osteoblast cell proliferation at 0.000001 to 1 uM measured after 48 hrs by MTT assay; format: functional, tissue-based; details: dose lower 1e-06 µM, dose upper 1.0 µM
# [7] = tested on: Calvarial osteoblast; experiment: Induction of osteoblast differentiation in rat Calvaria osteoblast cells measured assessed as maximal increase in alkaline phosphatase activity incubated for 48 hrs using PNPP as substrate; format: functional
# [8] = tested on: Calvarial osteoblast; experiment: Cytotoxicity against rat Calvarial osteoblast cells assessed as viable cells measured at 0.000001 to 1 uM measure after 48 hrs by cell viability assay; format: cell-based; details: dose lower 1e-06 µM, dose upper 1 µM
# [9] = tested on: Calvarial osteoblast; experiment: Induction of osteoblast differentiation in rat Calvaria osteoblast cells measured assessed as increase in alkaline phosphatase activity at 0.000001 to 1 uM incubated for 48 hrs using PNPP as substrate; format: functional, cell-based; details: dose lower 1e-06 µM, dose upper 1.0 µM
# [10] = Induction of osteogeneis in rat calvarial osteoblast cells assessed as fold upregulation of RUNX2 gene expression at 1 pM measured after 48 hrs by qPCR analysis relative to control; format: functional
# [11] = Induction of osteogeneis in rat calvarial osteoblast cells assessed as fold upregulation of BMP-2 gene expression at 1 pM measured after 48 hrs by qPCR analysis relative to control; format: functional
# [12] = Induction of osteogeneis in rat calvarial osteoblast cells assessed as fold upregulation of ALP gene expression at 1 pM measured after 48 hrs by qPCR analysis relative to control; format: functional
# [13] = tested on: Calvarial osteoblast; experiment: Induction of osteogeneis in rat calvarial osteoblast cells assessed as fold upregulation of Col1 gene expression at 1 pM measured after 48 hrs by qPCR analysis relative to control; format: functional
# [14] = tested on: Calvarial osteoblast; experiment: Induction of osteoblast differentiation in rat Calvaria osteoblast cells measured assessed as increase in alkaline phosphatase activity at 10 pM incubated for 48 hrs using PNPP as substrate; format: functional, cell-based
# [15] = tested on: Calvarial osteoblast; experiment: Induction of osteoblast differentiation in rat Calvaria osteoblast cells measured assessed as increase in alkaline phosphatase activity at 1 pM incubated for 48 hrs using PNPP as substrate; format: functional, cell-based
smiles,measurement,setting,value
COc1cc(C(=O)Nc2ccc3c(c2)C(O)CC(c2cccc(C)c2)O3)cc(OC)c1OC (centres undefined),fold change (FC),[1],2.3
same,fold change (FC),[2],1.8
same,Activity,[3],Active
same,fold change (FC),[4],1.55
same,fold change (FC),[5],1.83
same,Activity,[6],Active
same,ECmax,[7],100 pM
same,Activity,[8],Non-Toxic
COc1cccc([C@H]2CC(=O)c3cc(NC(=O)c4cc(OC)c(OC)c(OC)c4)ccc3O2)c1,Activity,[9],Active
COc1cc(C(=O)Nc2ccc3c(c2)C(=O)CC(c2ccc(C(C)(C)C)cc2)O3)cc(OC)c1OC (centres undefined),fold change (FC),[10],1.9
same,Activity,[3],Active
same,fold change (FC),[11],1.7
same,Activity,[6],Toxic
same,ECmax,[7],10 pM
same,fold change (FC),[12],2.8
same,Activity,[8],Non-Toxic
same,Activity,[13],inactive
O=C(O)c1cc(O)c(O)c(O)c1,Activity,[14],Active
same,Activity,[15],Active

# From ChEMBL document CHEMBL5030532, “Synthesis and Evaluation of Galloyl Conjugates of Flavanones as BMP-2 Upregulators with Promising Bone Anabolic and Fracture Healing Properties” (J Med Chem, 2021)
